Laboratory results: ChEMBL document CHEMBL3102801, “Synthesis and antiproliferative activity of new derivatives containing the polycyclic system 5,7:7,13-dimethanopyrazolo[3,4-b]pyrazolo[3',4':2,3]azepino[4,5-f]azocine” (Eur J Med Chem, 2014)

What was measured:
KM12 = experiment: Growth inhibition of human KM12 cells after 48 hrs by sulforhodamine B assay; format: functional; settings: KM12, 48 h
HCT-15 = experiment: Growth inhibition of human HCT15 cells after 48 hrs by sulforhodamine B assay; format: functional; settings: HCT-15, 48 h
COLO 205 = experiment: Growth inhibition of human COLO205 cells after 48 hrs by sulforhodamine B assay; format: functional; settings: COLO 205, 48 h
NCI-H460 = experiment: Growth inhibition of human NCI-H460 cells after 48 hrs by sulforhodamine B assay; format: functional; settings: NCI-H460, 48 h
NCI-H226 = experiment: Growth inhibition of human NCI-H226 cells after 48 hrs by sulforhodamine B assay; format: functional; settings: NCI-H226, 48 h
A549 = experiment: Growth inhibition of human A549 cells after 48 hrs by sulforhodamine B assay; format: functional; settings: A549, 48 h
HOP-62 = experiment: Growth inhibition of human HOP62 cells after 48 hrs by sulforhodamine B assay; format: functional; settings: HOP-62, 48 h
[1] = target: T1, Retinoblastoma-associated protein (Homo sapiens) (UniProt P06400); experiment: Inhibition of pRb p110 phosphorylation in human MDA-MB-231 cells after 48 hrs by Western blotting; format: cell-based
T1 sequence (whole entry): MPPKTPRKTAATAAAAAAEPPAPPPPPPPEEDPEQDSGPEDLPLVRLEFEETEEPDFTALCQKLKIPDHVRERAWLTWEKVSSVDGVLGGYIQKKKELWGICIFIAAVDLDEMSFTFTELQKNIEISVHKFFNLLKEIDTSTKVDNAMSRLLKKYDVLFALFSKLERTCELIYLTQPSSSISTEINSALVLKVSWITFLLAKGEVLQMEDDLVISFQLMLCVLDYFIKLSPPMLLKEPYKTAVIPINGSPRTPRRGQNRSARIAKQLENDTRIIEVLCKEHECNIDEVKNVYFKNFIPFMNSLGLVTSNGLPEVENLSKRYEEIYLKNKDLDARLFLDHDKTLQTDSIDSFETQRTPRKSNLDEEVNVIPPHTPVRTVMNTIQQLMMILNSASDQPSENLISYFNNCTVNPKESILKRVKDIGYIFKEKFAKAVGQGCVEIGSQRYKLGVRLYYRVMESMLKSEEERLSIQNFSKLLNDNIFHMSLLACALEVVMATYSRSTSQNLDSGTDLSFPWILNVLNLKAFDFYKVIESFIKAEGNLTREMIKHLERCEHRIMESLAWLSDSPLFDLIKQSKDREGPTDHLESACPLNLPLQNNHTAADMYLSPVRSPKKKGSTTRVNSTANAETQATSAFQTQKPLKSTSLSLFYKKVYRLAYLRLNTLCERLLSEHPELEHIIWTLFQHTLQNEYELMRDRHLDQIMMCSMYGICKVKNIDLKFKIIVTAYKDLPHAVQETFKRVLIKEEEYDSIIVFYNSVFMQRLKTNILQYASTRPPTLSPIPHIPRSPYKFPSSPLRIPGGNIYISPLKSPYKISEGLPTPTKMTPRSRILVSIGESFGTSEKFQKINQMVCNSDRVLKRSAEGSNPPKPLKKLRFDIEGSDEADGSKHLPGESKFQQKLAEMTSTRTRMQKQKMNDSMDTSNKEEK

HCT-116 [2] = experiment: Cell cycle arrest in human HCT116 cells assessed as accumulation of G2-M phase at 10 uM after 48 hrs using propidium iodide staining by flow cytometric analysis (reference value: 19.2%); format: functional
HCT-116 [3] = experiment: Cell cycle arrest in human HCT116 cells assessed as accumulation of sub-G0-G1 phase at 10 uM after 48 hrs using propidium iodide staining by flow cytometric analysis (reference value: 15.2%); format: functional
HCT-116 [4] = experiment: Cell cycle arrest in human HCT116 cells assessed as accumulation of G2-M phase at 5 uM after 48 hrs using propidium iodide staining by flow cytometric analysis (reference value: 19.2%); format: functional
HCT-116 [5] = experiment: Cell cycle arrest in human HCT116 cells assessed as accumulation of sub-G0-G1 phase at 5 uM after 48 hrs using propidium iodide staining by flow cytometric analysis (reference value: 15.2%); format: functional
MDA-MB-231 [6] = experiment: Cell cycle arrest in human MDA-MB-231 cells assessed as accumulation of G2-M phase at 10 uM after 48 hrs using propidium iodide staining by flow cytometric analysis (reference value: 27.5%); format: functional
MDA-MB-231 [7] = experiment: Cell cycle arrest in human MDA-MB-231 cells assessed as accumulation of G0-G1 phase at 10 uM after 48 hrs using propidium iodide staining by flow cytometric analysis (reference value: 42.2%); format: functional
MDA-MB-231 [8] = experiment: Cell cycle arrest in human MDA-MB-231 cells assessed as accumulation of G0-G1 phase at 5 uM after 48 hrs using propidium iodide staining by flow cytometric analysis (reference value: 42.2%); format: functional
[9] = Therapeutic index, ratio of IC50 for human HeDe cells to IC50 for human HCT116 cells; format: cell-based, HCT-116; settings: HeDe cells versus HCT116 cells, read-out: TI
[10] = Therapeutic index, ratio of IC50 for human HeDe cells to IC50 for human MDA-MB-231 cells; format: cell-based; settings: HeDe cells versus MDA-MB-231 cells, read-out: TI
[11] = Growth inhibition of human Hs 578T cells after 48 hrs by sulforhodamine B assay; format: functional
MCF7 = experiment: Growth inhibition of human MCF7 cells after 48 hrs by sulforhodamine B assay; format: functional; settings: MCF7, 48 h
PC-3 = experiment: Growth inhibition of human PC3 cells after 48 hrs by sulforhodamine B assay; format: functional; settings: PC-3, 48 h
[12] = Growth inhibition of human UO31 cells after 48 hrs by sulforhodamine B assay; format: functional; settings: UO-31, 48 h
TK-10 = experiment: Growth inhibition of human TK10 cells after 48 hrs by sulforhodamine B assay; format: functional; settings: TK-10, 48 h
ACHN = experiment: Growth inhibition of human ACHN cells after 48 hrs by sulforhodamine B assay; format: functional
A498 = experiment: Growth inhibition of human A498 cells after 48 hrs by sulforhodamine B assay; format: functional; settings: A498, 48 h
SK-OV-3 = experiment: Growth inhibition of human SKOV3 cells after 48 hrs by sulforhodamine B assay; format: functional; settings: SK-OV-3, 48 h
[13] = target: T1, Retinoblastoma-associated protein (Homo sapiens); experiment: Inhibition of pRb p110 phosphorylation in human HCT116 cells after 48 hrs by Western blotting; format: cell-based; settings: HCT-116
[14] = Growth inhibition of human OVCAR4 cells after 48 hrs by sulforhodamine B assay; format: functional; settings: OVCAR-4, 48 h
IGROV-1 = experiment: Growth inhibition of human IGROV1 cells after 48 hrs by sulforhodamine B assay; format: functional; settings: IGROV-1, 48 h
SK-MEL-2 = experiment: Growth inhibition of human SK-MEL-2 cells after 48 hrs by sulforhodamine B assay; format: functional; settings: SK-MEL-2, 48 h
M14 = experiment: Growth inhibition of human M14 cells after 48 hrs by sulforhodamine B assay; format: functional; settings: M14, 48 h
[15] = Growth inhibition of human SF539 cells after 48 hrs by sulforhodamine B assay; format: functional; settings: SF-539, 48 h
SNB-19 = experiment: Growth inhibition of human SNB19 cells after 48 hrs by sulforhodamine B assay; format: functional; settings: SNB-19, 48 h

C=C1c2c(C)nn(-c3ccc(OC)cc3)c2N(C)C23CC1C1(C)c4c(C)nn(-c5ccc(OC)cc5)c4N(C)C(C)(CC12)C3 (configuration not stated)
GI50 (KM12): 3.75 µM | GI50 (HCT-15): 3.11 µM | GI50 (COLO 205): 2.2 µM | GI50 (NCI-H460): 2.49 µM | GI50 (NCI-H226): 4.44 µM | GI50 (A549): 2.69 µM | GI50 (HOP-62): 4.28 µM | inhibition [1]: Dose-dependent effect | Activity (HCT-116 [2]): 10.3% | Activity (HCT-116 [3]): 13.5% | Activity (HCT-116 [4]): 12.3% | Activity (HCT-116 [5]): 14.3% | Activity (MDA-MB-231 [6]): 17.8% | Activity (MDA-MB-231 [7]): 58.2% | Activity (MDA-MB-231 [8]): 53.5% | selectivity ratio [9]: 26.9 | selectivity ratio [10]: 24.4 | GI50 [11]: 6.24 µM | GI50 (MCF7): 2.69 µM | GI50 (PC-3): 1.75 µM | GI50 [12]: 2.61 µM | GI50 (TK-10): 3.63 µM | GI50 (ACHN): 3.3 µM | GI50 (A498): 2.47 µM | GI50 (SK-OV-3): 3.39 µM | inhibition [13]: Dose-dependent effect | GI50 [14]: 3.56 µM | GI50 (IGROV-1): 7.54 µM | GI50 (SK-MEL-2): 3.23 µM | GI50 (M14): 3.88 µM | GI50 [15]: 3.16 µM | GI50 (SNB-19): 4.34 µM
